# Experiments:
# [1] = Safety in three randomized, double-blind, placebo-controlled trials (BLOOM, BLOSSOM, BLOOM-DM): discontinuation due to adverse reactions; type: in vivo, human
# Protocol: (§1) The safety of Compound 1 has been evaluated in three randomized, double-blind, placebo-controlled trials, one of 2 years duration (“BLOOM” trial) and two of 1 year duration (“BLOSSOM” and “BLOOM-DM” trials). A total of 3451 patients were exposed to Compound 1 10 mg twice daily for up to 1 year; 571 patients were exposed for up to 2 years; and an additional 896 patients were exposed to Compound 1 10 mg once daily for up to 1 year. The BLOOM-DM study included only patients with type 2 diabetes mellitus; BLOOM and BLOSSOM excluded patients with diabetes.
# The discontinuation rate due to adverse reaction was 7.1% for non-diabetic patients and 8.6% for patients with type 2 diabetes receiving Compound 1. The most common adverse reactions leading to discontinuation more often among Compound 1 treated patients than placebo were headache (1.3% vs. 0.8%), depression (0.9% vs. 0.5%) and dizziness (0.7% vs. 0.2%).
# [2] = Adverse events in BLOOM and BLOSSOM (Table A); type: in vivo, human; conditions: 10 mg BID, N = 3195
# Protocol: as §1
# (§2) The most common adverse reactions for non-diabetic patients treated with Compound 1 compared to placebo were headache, upper respiratory tract infection, nasopharyngitis, dizziness, and nausea. The most common adverse reactions for diabetic patients were hypoglycemia, headache, back pain, nasopharyngitis, and nausea. Adverse events that were reported by ≥5% of patients and were more frequently reported by patients taking Compound 1 compared to placebo are summarized in Table A (BLOOM and BLOSSOM) and Table B (BLOOM DM).
# [3] = Adverse events in BLOOM-DM, patients with type 2 diabetes (Table B); type: in vivo, human; conditions: 10 mg BID
# Protocol: as §1, §2
# [4] = Clinical trial of a single oral dose under fed and fasted conditions; type: in vivo, human; conditions: single oral dose 10 mg
# Protocol: A clinical trial was performed to evaluate the safety and pharmacokinetic profile of a single oral dose of Compound 1 (10 mg) administered to healthy male and female subjects aged 18 to 60 years (inclusive) under fed and fasted conditions. […] Cmax was reduced by approximately 10% in the fed compared to fasted state, but a lack of food effect was not proven. […] Compound 1 was generally well tolerated when dosed in the fasted state and after a high-fat breakfast. There were a higher number of adverse events when dosed in the fasted state, (18 compared to 6) including two moderate intensity (nausea and headache) and one severe (vomiting) intensity events occurring in a single subject.
# [5] = Pharmacokinetics parameters from an open-label, single-dose, cross-over clinical study (GastroPlus input); type: in vivo; conditions: human, oral, 10 mg, clinical study in the fed and fasted state
# Protocol: The GastroPlus™ software (Simulations Plus, Inc., Lancaster, Calif.) was used to simulate the pharmacokinetics of Compound 1 from immediate-release and modified-release tablets. The release profile follows first order release kinetics and T80% is approximately 8 hours. The lower limit was not defined. Pharmacokinetics parameters of Compound 1 were obtained from an open-label, single-dose, cross-over clinical study in the fed and fasted state. Input variables and default values for GastroPlus™ simulation were as follows
# [6] = not told
# [7] = subcutaneous Alzet pump, 1 mg/kg/h for four days; mean
# [8] = continuous subcutaneous infusion 0.630 mg/kg/h, Day 28, mean
# Protocol: (§3) On Day 28, animals were placed in Culex® cages for automated blood collection. […] Analyte plasma concentrations were determined by LC/MS/MS. Noncompartmental PK analysis was performed using WinNonlin® (Pharsight®, Mountain View, Calif.) to determine t1/2, Cmaxss, Css and AUClast.
# in vivo [9] = conditions: male, Sprague-Dawley, rat, plasma, po, 24 mg/kg/day
# in vivo [10] = conditions: male, SD, rat, plasma
# Protocol: as §3
# clinical = conditions: human, brain (lumbar cerebrospinal fluid measured) and plasma, oral, 10 mg
# [11] = Phase 3 clinical trials of lorcaserin for weight management
# [12] = phase 3 trial, after 12 months, ITT-LOCF
smiles,measurement,setting,value
C[C@H]1CNCCc2ccc(Cl)cc21 [Compound 1],depression leading to discontinuation,[1]; Compound 1 treated patients,0.9%
same,dizziness leading to discontinuation,[1]; Compound 1 treated patients,0.7%
same,headache leading to discontinuation,[1]; Compound 1 treated patients,1.3%
same,discontinuation rate due to adverse reaction,[1]; non-diabetic patients,7.1%
same,discontinuation rate due to adverse reaction,[1]; patients with type 2 diabetes,8.6%
same,"Back pain, number of patients",[2],201
same,"Back pain, patients (%)",[2],(6.3) %
same,"Constipation, number of patients",[2],186
same,"Constipation, patients (%)",[2],(5.8) %
same,"Diarrhea, number of patients",[2],207
same,"Diarrhea, patients (%)",[2],(6.5) %
same,"Dizziness, number of patients",[2],270
same,"Dizziness, patients (%)",[2],(8.5) %
same,"Dry mouth, number of patients",[2],169
same,"Dry mouth, patients (%)",[2],(5.3) %
same,"Fatigue, number of patients",[2],229
same,"Fatigue, patients (%)",[2],(7.2) %
same,"Headache, number of patients",[2],537
same,"Headache, patients (%)",[2],(16.8) %
same,"Nasopharyngitis, number of patients",[2],414
same,"Nasopharyngitis, patients (%)",[2],(13.0) %
same,"Nausea, number of patients",[2],264
same,"Nausea, patients (%)",[2],(8.3) %
same,"Upper respiratory tract infection, number of patients",[2],439
same,"Upper respiratory tract infection, patients (%)",[2],(13.7) %
same,"Urinary tract infection, number of patients",[2],207
same,"Urinary tract infection, patients (%)",[2],(6.5) %
same,"Back pain, patients (%)",[3],(11.7) %
same,"Cough, patients (%)",[3],(8.2) %
same,"Dizziness, patients (%)",[3],(7.0) %
same,"Fatigue, patients (%)",[3],(7.4) %
same,"Gastroenteritis viral, patients (%)",[3],(7.0) %
same,"Headache, patients (%)",[3],(14.5) %
same,"Back pain, number of patients",[3]; N = 3195,30
same,"Cough, number of patients",[3]; N = 3195,21
same,"Dizziness, number of patients",[3]; N = 3195,18
same,"Fatigue, number of patients",[3]; N = 3195,19
same,"Gastroenteritis viral, number of patients",[3]; N = 3195,18
same,"Headache, number of patients",[3]; N = 3195,37
same,"Hypertension, number of patients",[3]; N = 3195,13
same,"Hypertension, patients (%)",[3]; N = 3195,(5.1) %
same,"Hypoglycemia (including asymptomatic), number of patients",[3]; N = 3195,75
same,"Hypoglycemia (including asymptomatic), patients (%)",[3]; N = 3195,(29.3) %
same,"Hypoglycemia, symptomatic, number of patients",[3]; N = 3195,19
same,"Hypoglycemia, symptomatic, patients (%)",[3]; N = 3195,(7.4) %
same,"Influenza, number of patients",[3]; N = 3195,15
same,"Influenza, patients (%)",[3]; N = 3195,(5.9) %
same,"Nasopharyngitis, number of patients",[3]; N = 3195,29
same,"Nasopharyngitis, patients (%)",[3]; N = 3195,(11.3) %
same,"Nausea, number of patients",[3]; N = 3195,24
same,"Nausea, patients (%)",[3]; N = 3195,(9.4) %
same,"Procedural pain, number of patients",[3]; N = 3195,13
same,"Procedural pain, patients (%)",[3]; N = 3195,(5.1) %
same,"Urinary tract infection, number of patients",[3]; N = 3195,23
same,"Urinary tract infection, patients (%)",[3]; N = 3195,(9.0) %
same,number of adverse events,[4]; after a high-fat breakfast,6
same,number of adverse events,[4]; fasted state,18
same,food effect on overall exposure,[4]; fed vs fasted,no food effect on overall exposure
same,reduction of Cmax in the fed compared to fasted state,[4]; high-fat breakfast,approximately 10%
same,"time of maximum plasma concentrations, fed compared to fasted",[4]; high-fat breakfast,statistically significant delay
same,blood plasma ratio,"[5]; blood and plasma, read-out: Blood to plasma concentration ratio",1.3
same,clearance,[5]; plasma,326 mL/min
same,Vd,"[5]; plasma, read-out: Apparent volume of distribution",307 L
same,Papp,[6],3.54 ×10⁻⁶ cm/s
same,t1/2,"Day 6, oral gavage 24 mg/kg/day for 6 days, not fasted, composite profiles, 24 mg/kg/day",4.02 h
same,Css = AUC24 hr ÷ dosing interval (24 h),calculated for the infusion rate of the chronic study,213 ng/mL
same,Cl,[7],49.3 ± 4.83 mL/min/kg
same,Css from 42 to 90 hours,[7],340 ng/mL
same,"Css, 0 to 21 h",[8],155 ng/mL
same,AUC(0-inf),in vivo [9],5210 ng·h/mL
same,AUC(0-t),in vivo [9],5210 ng·h/mL
same,Cmax,in vivo [9],700 ng/mL
same,Tmax,in vivo [9],0.5 h
same,half-life,"in vivo [9]; t1/2, Day 6, oral gavage 24 mg/kg/day for 6 days, not fasted, composite profiles",4 h
same,AUC(0-t),"in vivo [10]; po, 24 mg/kg/day",4170 ng·h/mL
same,Cmax,"in vivo [10]; po, 24 mg/kg/day",553 ng/mL
same,AUC(0-t),"in vivo [10]; sc, 0.63 mg/kg/h",3630 ng·h/mL
same,Cmax,"in vivo [10]; sc, 0.63 mg/kg/h",213 ng/mL
same,Kp,clinical,< 1
same,logP,physchem,2.56
same,pKa,physchem,9.53
same,excess body weight lost,"[11]; first phase 3 trial, based on a normal BMI of 25",about one-third
same,average weight loss,[11]; [12],12.7 pounds
same,"average weight loss, of body weight",[11]; [12],5.8%
same,"average weight lost, of their weight",[11]; pivotal phase 3 clinical trial program,about 8%
same,patients achieved at least 10% weight loss,"[11]; pivotal phase 3 clinical trial program, treated for up to two years",over one-third
same,"average weight loss, top quartile of patients",[11]; second phase 3 trial,35 pounds
same,"average weight loss, top quartile of patients, of body weight",[11]; second phase 3 trial,16%
same,development of FDA-defined valvulopathy (echocardiograms),[11]; two-year treatment period,no apparent drug-related effect
